# US20040038861A1, “Methods and compositions for normalizing lipid levels in mammalian tissues” (priority 2001, published 2004)
# T1: ramp 1/C1ins− receptor (Mus musculus, UniProt Q60755+Q9WTJ5)
# T1 construct: expressed in transfected cells; host or cells: L6 myoblasts (ATCC), transient co-transfection of pcDNA3.1 plasmids
# T1 sequence (Q60755 42-496 isoform Q60755-2 limits assumed): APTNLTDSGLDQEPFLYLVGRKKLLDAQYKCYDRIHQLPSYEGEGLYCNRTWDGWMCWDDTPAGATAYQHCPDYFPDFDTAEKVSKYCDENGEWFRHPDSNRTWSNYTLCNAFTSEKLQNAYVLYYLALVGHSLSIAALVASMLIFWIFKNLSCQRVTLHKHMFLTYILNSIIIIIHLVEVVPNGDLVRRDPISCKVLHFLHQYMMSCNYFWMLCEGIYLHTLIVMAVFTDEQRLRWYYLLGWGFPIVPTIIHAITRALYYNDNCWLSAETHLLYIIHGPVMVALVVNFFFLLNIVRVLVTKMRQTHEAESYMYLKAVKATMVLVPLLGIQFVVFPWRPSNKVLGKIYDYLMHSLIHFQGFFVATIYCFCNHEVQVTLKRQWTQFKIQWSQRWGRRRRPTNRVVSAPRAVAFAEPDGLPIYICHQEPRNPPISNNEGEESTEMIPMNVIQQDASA
# T1 sequence (Q9WTJ5 27-148 partner): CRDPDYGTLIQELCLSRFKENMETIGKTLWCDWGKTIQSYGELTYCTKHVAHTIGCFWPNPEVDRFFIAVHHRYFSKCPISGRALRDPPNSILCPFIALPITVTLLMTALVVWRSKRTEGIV
# T2: murine ramp 1/C1ins− receptor (Mus musculus, UniProt Q60755+Q9WTJ5)
# T2 construct: expressed in transfected cells; host or cells: L6 myoblasts (ATCC), transient co-transfection of pcDNA3.1 plasmids
# T2 sequence (Q60755 42-496 isoform Q60755-2 limits assumed): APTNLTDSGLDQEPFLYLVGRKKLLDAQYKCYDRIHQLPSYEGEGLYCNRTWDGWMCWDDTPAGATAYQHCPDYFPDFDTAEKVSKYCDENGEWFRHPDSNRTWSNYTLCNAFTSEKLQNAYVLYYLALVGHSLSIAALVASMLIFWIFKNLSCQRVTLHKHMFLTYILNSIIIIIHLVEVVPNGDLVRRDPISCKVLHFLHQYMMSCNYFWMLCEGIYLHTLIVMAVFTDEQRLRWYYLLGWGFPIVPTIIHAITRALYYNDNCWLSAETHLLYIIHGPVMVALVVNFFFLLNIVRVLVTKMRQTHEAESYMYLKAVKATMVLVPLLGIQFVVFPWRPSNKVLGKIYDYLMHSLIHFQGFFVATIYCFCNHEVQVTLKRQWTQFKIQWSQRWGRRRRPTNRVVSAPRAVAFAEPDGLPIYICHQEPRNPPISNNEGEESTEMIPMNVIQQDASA
# T2 sequence (Q9WTJ5 27-148 partner): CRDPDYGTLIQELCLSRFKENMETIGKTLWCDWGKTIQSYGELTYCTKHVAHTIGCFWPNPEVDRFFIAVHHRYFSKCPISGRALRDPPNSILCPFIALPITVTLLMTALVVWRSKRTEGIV
# T3: murine ramp 1/C1ins- receptor (murine, UniProt Q60755)
# T3 sequence 1: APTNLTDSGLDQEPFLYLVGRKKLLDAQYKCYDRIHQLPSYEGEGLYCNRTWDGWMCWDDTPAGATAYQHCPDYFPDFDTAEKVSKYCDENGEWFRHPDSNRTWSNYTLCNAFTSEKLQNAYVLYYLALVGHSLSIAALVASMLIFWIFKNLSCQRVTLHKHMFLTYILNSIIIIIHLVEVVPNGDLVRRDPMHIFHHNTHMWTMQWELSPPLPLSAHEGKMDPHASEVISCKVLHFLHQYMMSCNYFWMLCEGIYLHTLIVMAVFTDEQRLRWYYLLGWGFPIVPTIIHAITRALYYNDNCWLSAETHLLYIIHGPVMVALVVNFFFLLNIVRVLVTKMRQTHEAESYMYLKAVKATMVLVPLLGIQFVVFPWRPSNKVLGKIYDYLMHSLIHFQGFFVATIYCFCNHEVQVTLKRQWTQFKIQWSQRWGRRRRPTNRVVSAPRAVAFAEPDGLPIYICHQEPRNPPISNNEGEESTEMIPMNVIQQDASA
# T3 sequence 2: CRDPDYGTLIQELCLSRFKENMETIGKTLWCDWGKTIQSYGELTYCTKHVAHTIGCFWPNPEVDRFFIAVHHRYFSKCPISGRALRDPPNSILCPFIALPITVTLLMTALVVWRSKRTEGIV
# Key:
# soleus muscle [1] = test: Lipid metabolites (free fatty acid, glycerol, triglyceride; enzymatic analysis) in isolated soleus muscle from normally fed rats; assay type: cell-based, rat; details: 1 h
# soleus muscle [2] = test: cAMP content of isolated soleus muscle from high fat-fed rats; assay type: cell-based, rat
# Method: (§1) Soleus muscle preparation. All experiments were performed according to protocols approved by the Institutional Animal Ethics Committee. 5-6 week-old male Wistar rats (160 g) were kept on a 12:12-h light/dark cycle, and fed and watered ad libitum. Animals were anaesthetised with 50 mg/kg Nembutal (pentobarbitone sodium), then sacrificed by cervical dislocation. Soleus muscles were dissected under oxygenated KHB (118 mM NaCl, 4.75 mM KCl, 1.2 mM MgSO4, 24.8 mM NaHCO3, 1.2 mM KH2PO4, 2.54 mM CaCl2, 10 mM glucose, pH 7.4) and teased into halves, then incubated as described below.
# (§2) For the measurement of cAMP in muscle, isolated soleus strips were incubated with stated concentrations of peptides, then lyophilized and deproteinized. Each strip was placed in 400 μl of 0.5 M HClO4 with 5 mM EDTA (phosphodiesterase inhibitor) and sonicated three times in 20 s bursts. Tubes were heated for 3-5 min in boiling water to coagulate protein, then centrifuged (12,000 g, 4° C., 2 min). Supernatant (300 μl) was taken and the pH adjusted to 7.0 with 75 μl of 2 M NH4OH. The samples were refrigerated (4° C., 2 h) to precipitate proteins, then centrifuged under the same conditions as above and 50 μl taken for cAMP measurement.
# soleus muscle [3] = test: cAMP content of isolated soleus muscle from normal fed rats; assay type: cell-based, rat; details: normal fed; 10-fold molar excess of antagonist; CGRP alone 6.9±0.8
# Method: as §1, §2
# ramp 1/C1ins− receptor = target: T1, ramp 1/C1ins− receptor; test: cAMP production in L6 myoblasts co-transfected with ramp 1 and C1ins−; assay type: cell-based, murine; details: 5 μM antagonist; agonist 10 pM to 100 nM
# Method: Transfection of L6 myoblasts and cos-7 cells, and analysis of radioligand binding. L6 myoblasts and cos-7 cells were obtained from ATCC. Both cell lines were cultered in Dulbecco's modified Eagle's medium (DMEM; Gibco/BRL, high glucose) supplemented with 10% fetal calf serum (Gibco/BRL, Gaithersburg, Md.), L-glutamine (2 mM), penicillin (100 U/ml; Sigma), streptomycin ([…]; Sigma), saline (0.85%), under 5% CO2/95% air at 37° C. The day before transfection, cells were trypsinised and seeded into six-well plates at a density of 2.9×10^5 cells/well in the same medium. For transfection, cells were incubated with a mixture comprising 1 μg each of Qiagen-purified (Qiagen, Valencia, Calif.) plasmids containing C1ins− with either ramp 1 or ramp 3, and Fugene reagent (6 μl; Boehringer Mannheim) in Opti-Mem I medium (Gibco/BRL). The complex was added with serum to cells, which were incubated for a further 48 h.
# Determination of cAMP in cultured cells and soleus muscle strips. cAMP concentration was measured in cells seeded in six-well plates and transfected as described. Following aspiration, cells were incubated for 15 min at room temperature in the presence of stated concentrations of ligands in binding buffer. Isobutylmethylxanthine (Sigma) was added to a final concentration of 0.5 mM together with stated concentrations of peptides, and the reaction terminated by aspiration. Cells were washed with 0.5 ml ice-cold TE buffer (10 mM Tris/HCl, 1 mM EDTA, pH 7.6) and rapidly transferred to eppendorf tubes in 1 ml of the same buffer, then boiled for 5 min. Following centrifugation at 12,000 g for 5 min at 4° C., then cooling on ice, duplicate 50 μl aliquots were analyzed for cAMP using an assay system based on competitive binding (Arnersham Pharmacia) according to the manufacturer's instructions.
# soleus muscle [4] = test: Glucose transport (2-deoxy-D-glucose uptake) in incubated soleus muscle strips; assay type: cell-based, rat; details: antagonist 1 μM and 10 μM; without antagonist 19.5±3.6
# Method: as §1
# Determination of rates of glucose transport in incubated soleus muscle strips. 4-5 muscle strips were added to each flask, which contained 10 ml DMEM. They were pre-incubated with hormones as indicated for 30 min at 30° C. in a shaking water bath, after which 5 μl of 2[^3H]DOG (0.5 μCi/ml) and 5 μl D[^14C(U)]sorbitol (0.05 μCi/ml) were added, then incubated for another 30 min; RIA grade BSA was added to 0.9% (w/v) to prevent non-specific binding of insulin to flasks. Following incubation, muscle strips were transferred to ice-cold KHB for 5-10 min to remove excess [^3H]DOG and [^14C]sorbitol. They were then blotted, frozen, tendons excised, then lyophilized for a further 48 h. Muscles were then weighed, transferred to scintillation vials and digested with 0.5 ml 1 M NaOH at 60° C. for 1 h. Scintillation fluid (4 ml) was added to each vial, and samples counted in a Beckman liquid scintillation spectrometer, preset to count ^14C and ^3H channels simultaneously. The amount of each isotope present in the samples was determined and used to calculate the extracellular space and the intracellular concentration of [^3H]DOG. The accumulation of intracellular [^3H]DOG, a measure of muscle glucose uptake, was calculated by subtracting the concentration of [^3H]DOG in the extracellular space from the corresponding total muscle [^3H]DOG]; extracellular [^3H]DOG was quantified by measuring the muscle concentration of [^14C]sorbitol.
# (§3) Data analysis. One way ANOVA, Dunnett's Multiple Comparisons Test, and unpaired Student's t-tests were used to calculate the statistical significance of differences, as appropriate. Dose-response curves were fitted to a sigmoidal dose-response algorithm, as follows: Y=minimum+(maximum−minimum)/([…] log ^(EC50^−X), for 2-DOG-uptake; and by a four parameter logistic model, Y=minimum+(maximum−minimum)/(1+10 log ^(EC50^−X)Hill-Coefficient) for total glycogen and [^14C]glucose incorporation. Calculations were performed using Prism v2.0 (GraphPad Software, San Diego, Calif.) to derive values for half-maximal effective concentration (EC50). Displacement curves derived for competition of bound radioligand with cold ligand in transfected cells were calculated according to a one site competition fit using Prism v2.0.
# soleus muscle [5] = test: Incorporation of D[14C(U)]glucose into glycogen in isolated incubated soleus muscle; assay type: cell-based, rat; details: isolated rat soleus muscle
# Method: as §1
# Measurement of glycogen metabolism in isolated, incubated soleus muscle. […]. Glycogen was precipitated overnight at −20° C. with 96% ethanol (1.2 ml), followed by centrifugation at 8,000 g (15 min, 4° C.). Pellets were washed twice with the same amount of ethanol then dissolved in water (0.6 ml). Aliquots (0.3 ml) were analyzed for D[^14C(U)] glucose content by liquid scintillation spectrometry.
# as §3
# [6] = target: T2, murine ramp 1/C1ins− receptor; test: Radioligand binding and displacement of [3H]amylin in L6 myoblasts co-transfected with murine ramp 1 and C1ins−; details: 10 nM radioligand, FIG. 8D
# Method: Transfection of L6 myoblasts and cos-7 cells, and analysis of radioligand binding. L6 myoblasts and cos-7 cells were obtained from ATCC. Both cell lines were cultered in Dulbecco's modified Eagle's medium (DMEM; Gibco/BRL, high glucose) supplemented with 10% fetal calf serum (Gibco/BRL, Gaithersburg, Md.), L-glutamine (2 mM), penicillin (100 U/ml; Sigma), streptomycin (100 mg/ml; Sigma), saline (0.85%), under 5% CO2/95% air at 37° C. The day before transfection, cells were trypsinised and seeded into six-well plates at a density of 2.9×10^5 cells/well in the same medium. For transfection, cells were incubated with a mixture comprising 1 μg each of Qiagen-purified (Qiagen, Valencia, Calif.) plasmids containing C1ins− with either ramp 1 or ramp 3, and Fugene reagent (6 μl; Boehringer Mannheim) in Opti-Mem I medium (Gibco/BRL). The complex was added with serum to cells, which were incubated for a further 48 h.
# For binding experiments, radioligand (either alone or together with stated final concentrations of non-radiolabeled ligands) was dissolved in DMEM containing 0.1% BSA (binding buffer) for 1 h before binding experiments were performed. […] Cells were washed twice with this buffer, then incubated with 1 ml of the same plus radioligand for 4 h at room temperature (21° C.).
# soleus muscle [7] = test: Total glycogen content in isolated incubated soleus muscle; assay type: cell-based, rat; details: isolated rat soleus muscle
# Method: as §1
# Total glycogen content was measured in muscle strips by lyophilization followed by hydrolysis of glycogen to D-glucose with amyloglucosidase (Sigma) 20 U/100 ml in 0.2 M sodium acetate/acetic acid buffer, pH 4.8, and expressed as μmol ‘glucosyl’ units/g dry muscle weight. Free glucose in supernatant solutions was measured with a glucose/lactate analyzer (YSI 2300STAT, Yellow Springs Corporation) using D-glucose oxidase immobilized enzyme chemistry.
# as §3
# [8] = target: T3, murine ramp 1/C1ins- receptor; test: displacement of 20 nM [^3H]amylin, co-transfected L6 myoblasts; Cheng and Prusoff with Kd […]
# Source text: (§4) Cells were then washed and bound radioactivity determined by liquid scintillation counting. […] Each point represents the mean±SEM of three independent myoblast transfections from an experiment repeated at least twice.
# 95% confidence intervals (nM) are bracketed.
# [9] = target: T3, murine ramp 1/C1ins- receptor; test: displacement of 20 nM [^3H]amylin, co-transfected L6 myoblasts
# Source text: as §4
# [10] = target: T3, murine ramp 1/C1ins- receptor; test: displacement of 20 nM [^3H]amylin, L6 myoblasts co-transfected with murine ramp 1 and C1ins-
# Source text: as §4
molecule,measurement,setting,value
rat amylin-(8-37),free fatty acid concentration in conjunction with 1 pM CGRP,"soleus muscle [1]; 100 pM antagonist + 1 pM CGRP, CGRP alone 166±18",86±20 nmol/g
same,free fatty acid content in conjunction with 100 nM CGRP,"soleus muscle [1]; 10 μM antagonist or maximally stimulating insulin (23.7 nM) + 100 nM CGRP, CGRP alone 334±52",34 ± 5 nmol/g
same,free fatty acid content in conjunction with 100 nM amylin,"soleus muscle [1]; 10 μM antagonist or maximally stimulating insulin (23.7 nM) + 100 nM amylin, amylin alone 216±26",18.5 ± 6 nmol/g
same,cAMP content with 100 nM CGRP1 plus antagonist,soleus muscle [2]; 10-fold molar excess of antagonist,4.3 ± 0.8 pmol/mg
same,cAMP content with 1 pM CGRP plus antagonist,"soleus muscle [2]; 10-molar excess of antagonist, CGRP alone 8.6±0.4",4.4±0.4 pmol/mg
same,cAMP content with 100 nM CGRP plus antagonist,soleus muscle [3],2.9 ± 0.8 pmol/mg
same,antagonism of peptide-evoked cAMP production,ramp 1/C1ins− receptor,only a modest decrease in cAMP production
same,glucose uptake in presence of amylin (10 nM) and insulin (23.7 nM) plus antagonist,soleus muscle [4],no significant effect
salmon calcitonin,EC50,soleus muscle [5]; absence of insulin,0.1 nM
same,EC50,soleus muscle [5]; human insulin 23.7 nM,0.9 nM
same,specific binding of [3H]radioligand to L6 myoblasts co-transfected with ramp 1 and C1ins−,[6],significant increases in specific binding
same,EC50,soleus muscle [7]; absence of insulin,1.7 nM
same,EC50,soleus muscle [7]; human insulin 23.7 nM,0.6 nM
"VTHRLAGLLSRSGGVVKDNFVPTNVGSEAF [^8,37rat CGRP-1]",Ki,[8],19.5 nM
same,"fold lower Kl than ^8,37amylin",[9],~20 fold
same,IC50,[10],62 nM
